Activity change, negative = inhibition and AC50 data for 24 compounds are collected here from PubChem BioAssay AID602187 (Broad Institute, 2012).

Activity calls are given as the source filed them.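 The calls were made as follows: active = compounds lowering yeast growth whose fitted half-maximal concentration is at most twice the top tested dose; inconclusive = flat partial growth drop between 30 and 70 percent, or poor fit; inactive = the rest.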

Tested on in one assay: not listed separately
Kind of assay: yeast fermentative growth inhibition – glucose medium, OD600, dry powder, dose response (AID 602187). The conditions noted are these: S. cerevisiae growth in glucose medium, OD600, 48 h; at 19.5 µM (top of the series).
In the case of `Oc1c(C(c2ccc(Cl)cc2)N2CCCC2)ccc2cccnc12` (centres undefined), the activity change, negative = inhibition is 7.98% (inactive). Same read-out and setting: under `Cc1ccc(C(=O)Nc2nnc(-c3ccccc3)o2)cc1C` stands 28.3% (inactive). For `O=C(Nc1nnc(-c2ccc3c(c2)CCCC3)o1)c1ccccc1`, the activity change, negative = inhibition was -13.1% (inactive). For the compound `CCOC(=O)N1C(=O)C2(CCCCC2)N(c2ccc(C)cc2)C1=S`, the activity change, negative = inhibition was 13.1% (inactive). Same read-out and setting: the same measure for `O=C(Nc1nnc(-c2ccc3c(c2)CCCC3)o1)c1ccc(Cl)cc1Cl`: -3.17% (inactive); for `NC(=O)c1cccc(C(=O)Nc2nc(-c3ccc4c(c3)CCCC4)cs2)c1`: 9.9% (inactive). On the same count and under the same terms, under `Cc1cc(C)n(-c2nc3ccccc3c(=O)n2OCC#N)n1` stands -16.8% (inactive). Same read-out and setting: under `O=C(Nc1nc(-c2ccccc2)cs1)c1ccc(Br)s1` stands 25.4% (inactive); under `COc1ccc(-c2nnc(NC(=O)c3ccc(S(=O)(=O)N4CCCc5ccccc54)cc3)o2)cc1`, 19.9% (inactive); under `O=C(Nc1nc(-c2ccccn2)cs1)c1ccccc1`, -9.7% (inactive). On to `C/C(=N\NC(=O)c1cc2ccccc2cc1O)c1ccccn1`, for which the activity change, negative = inhibition is -15% (inactive). Still for that read-out and setting: under `O=C(Nc1nc(-c2ccc3c(c2)CCCC3)cs1)c1ccccc1` stands 34% (inactive).

Staying with this assay, now noted: S. cerevisiae growth in glucose medium, OD600, 48 h; at 23.5 µM (top of the series).
For the compound `Oc1c(CN2CCN(c3ccccc3)CC2)cc(Cl)c2cccnc12`, the activity change, negative = inhibition was 11.7% (inactive).

The test system of the next assay is S. cerevisiae growth in glucose medium, OD600, 48 h. The assay is described as above.
Details: not given
Turning to `Cc1ccc(-c2nc3c(Cl)cc(Cl)cc3c(=O)n2O)cc1`, the AC50 – broadly, the concentration at which the activity in the assay is half-maximal – is 2.01 µM.

Regarding `O=C(NNC(=S)Nc1ccc(Cl)c(Cl)c1)c1ccccn1`, the half-maximal activity concentration (AC50) is 22 µM. On the same count and under the same terms, under `O=C(Oc1c(Cl)cc(Cl)c2cccnc12)c1ccco1` stands 0.346 µM. Same read-out and setting: the same measure for `CCCC(=O)NC(c1cccs1)c1cc(Cl)c2cccnc2c1O` (centres undefined): 5.88 µM; for `Cc1ccc(C(=O)Nc2nc(-c3ccccn3)cs2)cc1`: 6.06 µM. Still for that read-out and setting: under `O=C(Nc1nc(-c2ccccn2)cs1)c1ccc(Br)s1` stands 0.737 µM; under `O=C(Nc1nc(-c2ccccn2)cs1)c1ccc(Cl)s1`, 1.75 µM; under `CN1CCN(C(c2ccc(C(F)(F)F)cc2)c2ccc3cccnc3c2O)CC1` (centres undefined), 3.32 µM. In the case of `Oc1c(CN2CCc3ccccc3C2)cc(Cl)c2cccnc12`, the concentration at half-maximal activity (AC50) is 15.3 µM. The same measure, in the same setting: under `C=CCNC(=S)N/N=C(\C)c1ccccn1` stands 6.93 µM; under `Oc1c(C(c2ccccc2Cl)N2CCCCC2)ccc2cccnc12` (centres undefined), 16.3 µM.
